According to patent publication US5776948A, “Fluoroquinoline derivative” (Chugai Seiyaku Kabushiki Kaisha, priority 1992, dated 1998):
In brackets after ≈: the same amount, converted by molar mass. Like-named read-outs stand apart in the source and are kept apart here.

Experiments:
[1] = system: mouse lymphatic leukemia cell line L1210; test: Cytotoxicity test (MTT method); assay type: cell-based
Method: The 50% inhibitory concentrations (IC50) of the test compounds on a mouse lymphatic leukemia cell line L1210 were determined by the MTT [3-(4,5-dimethylthiazol-2-yl)-2,5-diphenyltetrazolium bromide] method.
Namely, 2×10^4 L1210 cells were incubated in 200 μl of a culture medium (RPMI-1640 medium containing 10% of fetal bovine serum) containing a two-fold serial dilution of a test compound at 37° C. for a day. Four hours before the completion of the incubation, 10 μl of a 5 mg/ml solution of MTT was added. When the incubation was completed, the culture medium was eliminated by sucking and the insoluble formazan, which had been reduced by the mitochondrial dehydrogenase of the cells, was extracted with 100 μl of dimethylsulfoxide. Then the absorbance was measured at 550 nm. The cell propagation ratio was expressed in the ratio of the formazan formation of the test lot to that of the control lot wherein cells were incubated in a medium free from any test compound. Then IC50 was determined by the probit method.

TO-101 = test: Antibacterial activity test, MIC by agar plate dilution method; assay type: cell-based; settings: TO-101 (listed under S. marcescens); unit assumed
Method: (§1) The minimum inhibitory concentrations (MIC) of the test compounds were measured by the publicly known agar plate dilution method.

MRSA RN-10 = test: as above; assay type: cell-based; settings: unit assumed
Method: as §1

[2] = system: A. calcoaceticus IFO 12552; test: as above; assay type: cell-based; settings: unit assumed
Method: as §1

S. epidermidis IFO 12993 = test: as above; assay type: cell-based; settings: unit assumed
Method: as §1

C. freundii IFO 12681 = test: as above; assay type: cell-based; settings: unit assumed
Method: as §1

S. aureus 209P = test: as above; assay type: cell-based; settings: unit assumed
Method: as §1

P. rettgeri IFO 13501 = test: as above; assay type: cell-based; settings: unit assumed
Method: as §1

M. morganii IFO 3848 = test: as above; assay type: cell-based; settings: unit assumed
Method: as §1

E. aeruginosa IFO 13534 = test: as above; assay type: cell-based; settings: unit assumed
Method: as §1

E. coli NIHJ JC-2 = test: as above; assay type: cell-based; settings: unit assumed
Method: as §1

B. cereus IFO 13494 = test: as above; assay type: cell-based; settings: unit assumed
Method: as §1

X. maltophilia IFO 14161 = test: as above; assay type: cell-based; settings: unit assumed
Method: as §1

A. faecalis IFO 13111 = test: as above; assay type: cell-based; settings: unit assumed
Method: as §1

S. marcescens IFO 12648 = test: as above; assay type: cell-based; settings: unit assumed
Method: as §1

B. subtilis ATCC 6633 = test: as above; assay type: cell-based; settings: unit assumed
Method: as §1

CSJ 1922 = test: as above; assay type: cell-based; settings: CSJ 1922 (listed under E. coli); unit assumed
Method: as §1

S. typhimurium LT-2 = test: as above; assay type: cell-based; settings: unit assumed
Method: as §1

P. vulgaris IFO 3851 = test: as above; assay type: cell-based; settings: unit assumed
Method: as §1

P. mirabilis IFO 13300 = test: as above; assay type: cell-based; settings: unit assumed
Method: as §1

K. pneumoniae B-54 = test: as above; assay type: cell-based; settings: unit assumed
Method: as §1

JU-5 = test: as above; assay type: cell-based; settings: JU-5 (listed under S. aureus); unit assumed
Method: as §1

E. cloacae IFO 3320 = test: as above; assay type: cell-based; settings: unit assumed
Method: as §1

P. aeruginosa GNB-139 = test: as above; assay type: cell-based; settings: unit assumed
Method: as §1

[3] = Phototoxicity test (UVA irradiation, MTT method); assay type: cell-based; set-up: dose or concentration left out as unconfirmed; settings: mouse, l1210 cells; L1210, UVA 0.5 J, 2 days incubation; read-out: Phototoxicity (%; propagation ratio under 0.5 J-irradiation to non-irradiation lot)
Method: The phototoxicity was determined by enhancing the cytotoxicity of a test compound on L1210 via UV irradiation. […] After the irradiation, 100 μl of a culture medium was added and the cells were incubated at 37° C. for 2 days.

[4] = background art; cited from earlier work
[5] = L1210 cells, 37° C., a day, MTT, read-out: IC50

MIC (TO-101) [µg/mL] | MIC (MRSA RN-10) [µg/mL] | MIC [2] [µg/mL] | MIC (S. epidermidis IFO 12993) [µg/mL] | MIC (C. freundii IFO 12681) [µg/mL] | MIC (S. aureus 209P) [µg/mL] | MIC (P. rettgeri IFO 13501) [µg/mL] | MIC (M. morganii IFO 3848) [µg/mL] | MIC (E. aeruginosa IFO 13534) [µg/mL] | MIC (E. coli NIHJ JC-2) [µg/mL] | MIC (B. cereus IFO 13494) [µg/mL] | MIC (X. maltophilia IFO 14161) [µg/mL] | MIC (A. faecalis IFO 13111) [µg/mL] | MIC (S. marcescens IFO 12648) [µg/mL] | MIC (B. subtilis ATCC 6633) [µg/mL] | MIC (CSJ 1922) [µg/mL] | MIC (S. typhimurium LT-2) [µg/mL] | MIC (P. vulgaris IFO 3851) [µg/mL] | MIC (P. mirabilis IFO 13300) [µg/mL] | Compound | IC50 [1, 5] [µg/mL] | other results
– | – | – | – | – | – | – | – | – | – | – | – | – | – | – | – | – | – | – | O=C(O)c1cn(C2CC2)c2cc(N3CCNCC3)c(F)cc2c1=O [Ciprofloxacin, reference compound] | 77 (≈ 232 µM) | –
0.39 | 1.56 | 0.78 | 3.13 | 0.2 | 1.56 | 0.2 | 0.2 | 0.39 | 0.39 | 0.78 | 0.78 | 1.56 | 0.39 | 0.1 | 0.2 | 0.39 | 0.2 | 0.2 | COc1c(C2(N)CCCC2)c(F)cc2c(=O)c(C(=O)O)cn(C3CC3)c12.Cl [Ex. 16, 7-(1-aminocyclopentyl)-1-cyclopropyl-6-fluoro-8-methoxy-1,4-dihydro-4-oxo-3-quinolinecarboxylic acid hydrochloride] | 399 | MIC (K. pneumoniae B-54): 0.2 µg/mL; MIC (JU-5): 0.39 µg/mL; MIC (E. cloacae IFO 3320): 0.1 µg/mL; MIC (P. aeruginosa GNB-139): 3.13 µg/mL
– | – | – | – | – | – | – | – | – | – | – | – | – | – | – | – | – | – | – | COc1c(C2(N)CCCCC2)c(F)cc2c(=O)c(C(=O)O)cn(C3CC3)c12.Cl [Ex. 17, 7-(1-aminocyclohexyl)-1-cyclopropyl-6-fluoro-8-methoxy-1,4-dihydro-4-oxo-3-quinolinecarboxylic acid hydrochloride] | – | IC50 ([1]; L1210): 399 µg/mL
– | – | – | – | – | – | – | – | – | – | – | – | – | – | – | – | – | – | – | COc1c(C2(N)CCOCC2)c(F)cc2c(=O)c(C(=O)O)cn(C3CC3)c12.Cl [Ex. 18, 7-(4-amino-2,3,5,6-tetrahydropyran-4-yl)-1-cyclopropyl-6-fluoro-8-methoxy-1,4-dihydro-4-oxo-3-quinolinecarboxylic acid hydrochloride] | > 800 | –
0.39 | 0.78 | 1.56 | 1.56 | 0.2 | 0.78 | 0.39 | 0.1 | 0.39 | 0.2 | 0.78 | 0.78 | 1.56 | 0.78 | 0.1 | 0.2 | 0.39 | 0.2 | 0.39 | COc1c(C2(N)CCC2)c(F)cc2c(=O)c(C(=O)O)cn(C3CC3)c12.Cl [Ex. 23, 7-(1-aminocyclobutyl)-1-cyclopropyl-6-fluoro-8-methoxy-1,4-dihydro-4-oxo-3-quinolinecarboxylic acid hydrochloride] | – | MIC (K. pneumoniae B-54): 0.2 µg/mL; MIC (JU-5): 0.39 µg/mL; MIC (E. cloacae IFO 3320): 0.1 µg/mL; MIC (P. aeruginosa GNB-139): 3.13 µg/mL
0.2 | 0.39 | 0.78 | 0.78 | 0.1 | 0.39 | 0.2 | 0.05 | 0.2 | 0.2 | 0.2 | 0.78 | 1.56 | 0.2 | 0.05 | 0.1 | 0.2 | 0.1 | 0.05 | COc1c(C2(N)CC2)c(F)cc2c(=O)c(C(=O)O)cn(C3CC3)c12.Cl [Ex. 26, 7-(1-aminocyclopropyl)-1-cyclopropyl-6-fluoro-8-methoxy-1,4-dihydro-4-oxo-3-quinolinecarboxylic acid hydrochloride] | 323 | viability at 48 h [3]: > 100%; MIC (K. pneumoniae B-54): 0.1 µg/mL; MIC (JU-5): 0.2 µg/mL; MIC (E. cloacae IFO 3320): 0.025 µg/mL; MIC (P. aeruginosa GNB-139): 0.78 µg/mL
– | – | – | – | – | – | – | – | – | – | – | – | – | – | – | – | – | – | – | CC1COc2c(N3CCN(C)CC3)c(F)cc3c(=O)c(C(=O)O)cn1c23 (stereo not shown) [Ofloxacin, reference compound] | 195 (≈ 540 µM) | viability at 48 h [3]: 69%
– | – | – | – | – | – | – | – | – | – | – | – | – | – | – | – | – | – | – | CCn1cc(C(=O)O)c(=O)c2cc(F)c(N3CCNCC3)nc21 [enoxacin] | – | solubility under physiological conditions [4]: poor solubility
– | – | – | – | – | – | – | – | – | – | – | – | – | – | – | – | – | – | – | CCn1cc(C(=O)O)c(=O)c2cc(F)c(N3CCNCC3)cc21 [norfloxacin] | – | solubility under physiological conditions [4]: poor solubility
